Like-named read-outs stand apart in the source and are kept apart here.
Legend:
male Std:ddY mice = test: Phenyl-1,4-benzoquinone-induced writhing test; type: in vivo; conditions: for ED50 / ED50 (mg/kg sc) / ED50 (mg/kg po): logit analysis; for inhibition in vivo at 1 mg/kg / inhibition in vivo at 10 mg/kg: 1 h; for inhibition in vivo at 1 mg/kg: subcutaneously administered at a dose of 1 mg/kg
Experimental: Phenyl-1,4-benzoquinone-induced Writhing Test Referring to the method disclosed in Proc. Soc. exp. Biol. […] For oral administration, a test compound was suspended in 0.5% tragacanth solution. […] In the control group, a physiological saline solution containing 10% Tween 80 and 10% ethanol was administered in the case of subcutaneous administration, or a 0.5% tragacanth solution was administered in the case of oral administration. The number of writhing movements in the test compound-treated group was compared with that in the control group, and the writhing inhibitory percentage was calculated therefrom and considered as an analgesic effect. Writhing inhibitory percentage (%)=[(A−B)/A]×100 In the above equation, A means the number of writhing movements in the control group, and B means the number of writhing movements in the test compound-treated group. From the writhing inhibitory percentage of the test compound, ED50 (mg/kg) was calculated by logit analysis.

Jcl:SD strain male rats = test: Study of pungency (eye wiping test); type: in vivo; conditions: a drop into the eye of rats, counted for 3 minutes, average ± S.E.M.
Experimental: Experiment 2: Study of Pungency (Eye Wiping Test)
The pungency of the test compounds were studied referring to the method of Jancso et al. [Acta Physiol. Acad. Sci. Hung., 19, 113–131 (1961)] and the method of Szallasi et al. [Brit. J. Pharmacol., 119, 283–290 (1996)]. A test compound was dissolved in a physiological saline solution containing 10% ethanol and 10% Tween 80 into various concentrations (μg/ml), and a drop of the solution thereof was added dropwise into the eye of Jcl:SD strain male rats (5 to 25 […] per group, body weight; 220 to 280 g). Then, the number of the protective wiping movements with forefoot was counted for 3 minutes, and was considered as an index for pungency. The test results are expressed as average value±S.E.M., and the statistical significant differences between each test compound-treated group and the control group were analyzed using non-parametric Dunnett's multiple range test, and p<0.05 was considered as significant difference.

[1] = literature report; cited from earlier work
VR1 receptor = conditions: animal pain model; VR1 receptor antagonist; cited from earlier work
[2] = Mus musculus, po, oral administration, writhing inhibition, read-out: ED50 (mg/kg po)
[3] = Mus musculus, sc, 60 minutes before PBQ, read-out: Inhibitory percentage (%)
[4] = Mus musculus, sc, subcutaneous administration, writhing inhibition, read-out: ED50 (mg/kg sc)
[5] = Mus musculus, po, orally administered at a dose of 10 mg/kg, 60 minutes before PBQ, read-out: Inhibitory percentage (%)

| Compound | ED50 (male Std:ddY mice; [2]) [mg/kg] | inhibition in vivo at 1 mg/kg (male Std:ddY mice; [3]) [%] | ED50 (male Std:ddY mice; [4]) [mg/kg] | inhibition in vivo at 10 mg/kg (male Std:ddY mice; [5]) [%] | Number of wiping movements (Jcl:SD strain male rats; concentration 100 μg/ml) | Number of wiping movements (Jcl:SD strain male rats; concentration 500 μg/ml) | other results |
| --- | --- | --- | --- | --- | --- | --- | --- |
| COc1cc(CNC(=O)CCCC/C=C/C(C)C)ccc1O [Capsaicin, trans-8-methyl-N-vanillyl-6-nonenamide, reference compound] | > 30 | 46.6 | 1.15 |  |  |  | inhibition in vivo at 30 mg/kg (male Std:ddY mice; Mus musculus, po, orally administered at a dose of 30 mg/kg, read-out: Inhibitory percentage (%)): 20.6%; Number of wiping movements (Jcl:SD strain male rats; concentration 1 μg/ml): 6.0 ± 0.8; Number of wiping movements (Jcl:SD strain male rats; concentration 2 μg/ml): 7.8 ± 1.4; Number of wiping movements (Jcl:SD strain male rats; concentration 5 μg/ml): 11.2 ± 3.0; Number of wiping movements (Jcl:SD strain male rats; concentration 5 μg/ml, listed as capsaicin): significantly increased; Number of wiping movements (Jcl:SD strain male rats; concentration 10 μg/ml): 26.4 ± 6.0; Number of wiping movements (Jcl:SD strain male rats; concentration 20 μg/ml): 38.0 ± 4.8 |
| COc1cc(CC(=O)Nc2cccc(C3CCC(C(C)(C)C)CC3)c2)ccc1O (centres unmarked) [Example 20, N-[3-(4-tert-butylcyclohexan-1-yl)phenyl]-4-hydroxy-3-methoxyphenylacetamide] | 1.28 | 96.1 | ≤ 0.1 | 97.1 | 5.0 ± 1.3 | 10.6 ± 0.7 | ED50 (mg/kg sc) (male Std:ddY mice; subcutaneous administration, writhing inhibition, listed as Ex. 20): 0.056 mg/kg |
| COc1cc(CC(=O)Nc2cccc(CCc3ccccc3)c2)ccc1OCCN [Example 60, 4-(2-aminoethoxy)-3-methoxy-N-[3-(2-phenylethyl)phenyl]-phenylacetamide] | ≤ 1 | 50.5 | 0.83 |  |  | no significant increase | ED50 (mg/kg po) (male Std:ddY mice; oral administration, writhing inhibition, listed as Ex. 60): 0.68 mg/kg; Number of wiping movements (Jcl:SD strain male rats; concentration 500 μg/ml, listed as Ex. 60): 4.2 ± 1.2; Number of wiping movements (Jcl:SD strain male rats; concentration 1000 μg/ml): 8.4 ± 2.1 |
| COc1cc(CC(=O)Nc2cccc(C3CCCCC3)c2)ccc1OCCN [Example 61, 4-(2-aminoethoxy)-N-(3-cyclohexylphenyl)-3-methoxyphenylacetamide] | 3 | 72.8 | 0.13 | 89 | 7.4 ± 2.1 | 15.6 ± 4.5 | Number of wiping movements (Jcl:SD strain male rats; concentration 20 μg/ml): 2.0 ± 0.8 |
| COc1cc(CC(=O)Nc2cccc(C3CCC(C(C)(C)C)CC3)c2)ccc1OCCN (centres unmarked) [Example 62, 4-(2-aminoethoxy)-N-[3-(4-tert-butylcyclohexan-1-yl)phenyl]-3-methoxyphenylacetamide] |  | 100 | 0.23 | 96.1 |  | no significant increase | ED50 (mg/kg po) (male Std:ddY mice; oral administration, writhing inhibition, listed as Ex. 62): 0.43 mg/kg; Number of wiping movements (Jcl:SD strain male rats; concentration 500 μg/ml, listed as Ex. 62): 4.6 ± 1.2; Number of wiping movements (Jcl:SD strain male rats; concentration 1000 μg/ml): 7.6 ± 1.4 |
| COc1cc(CC(=O)Nc2cccc(-c3cccc(F)c3)c2)ccc1OCCN [Example 66, 4-(2-aminoethoxy)-N-[3-(3-fluorophenyl)phenyl]-3-methoxyphenylacetamide] |  |  |  | 100 | 5.6 ± 2.4 | no significant increase | Number of wiping movements (Jcl:SD strain male rats; concentration 500 μg/ml, listed as Ex. 66): 3.6 ± 1.6 |
| COc1cc(CC(=O)Nc2cccc(-c3ccc(Cl)cc3)c2)ccc1OCCN [Example 67, 4-(2-aminoethoxy)-N-[3-(4-chlorophenyl)phenyl]-3-methoxyphenylacetamide] |  |  |  | 90.2 | 3.8 ± 1.3 | 13.4 ± 2.8 |  |
| COc1cc(CC(=O)Nc2cccc(-c3ccc4c(c3)OCO4)c2)ccc1OCCN [Example 164, 4-(2-aminoethoxy)-N-[3-(2H-benzo[d]-1,3-dioxolan-5-yl)phenyl]-3-methoxyphenylacetamide] |  |  |  |  | 5.4 ± 2.8 | no significant increase | ED50 (mg/kg po) (male Std:ddY mice; oral administration, writhing inhibition): 1.56 mg/kg; Inhibitory percentage (%) (male Std:ddY mice; writhing inhibition, orally administered at a dose of 10 mg/kg, 60 minutes before PBQ): 99.0%; Number of wiping movements (Jcl:SD strain male rats; concentration 500 μg/ml, listed as Ex. 164): 2.8 ± 1.7 |
| COc1cc(CC(=O)Nc2cccc(-c3cccc(Oc4ccccc4)c3)c2)ccc1OCCN [Example 186, 4-(2-aminoethoxy)-3-methoxy-N-[3-(3-phenoxyphenyl)phenyl]-phenylacetamide] | 1.83 |  |  | 84.3 | 4.0 ± 1.1 | 12.2 ± 2.0 |  |
| COc1cc(CC(=O)Nc2cccc(N3CCCC4(CCCCC4)C3)c2)ccc1OCCN [Example 201, 4-(2-aminoethoxy)-3-methoxy-N-[3-(2-azaspiro[5, 5]undecan-2-yl)phenyl]phenylacetamide] | 2.04 |  |  | 100 |  |  |  |
| COc1cc(CC(=O)Nc2cccc(CCc3cccc(C)c3)c2)ccc1OCCN [Example 217, 4-(2-aminoethoxy)-3-methoxy-N-[3-[2-(3-methylphenyl)ethyl]-phenyl]phenylacetamide] | 1.13 |  |  | 96.3 |  |  |  |
| COc1cc(CC(=O)Nc2cccc(CCc3ccccc3F)c2)ccc1OCCN [Example 219, 4-(2-aminoethoxy)-3-methoxy-N-[3-[2-(2-fluorophenyl)ethyl]-phenyl]phenylacetamide] | 1.46 |  |  | 94 |  |  |  |
| COc1cc(CC(=O)Nc2ccc3c(c2)C(=O)C(Cc2ccccc2)CC3)ccc1OCCN (centres unmarked) [Example 225, 4-(2-aminoethoxy)-3-methoxy-N-[1-oxo-2-phenylmethyl-1,2,3,4-tetrahydronaphthalen-7-yl]phenylacetamide] | 4.79 |  |  | 73.5 |  | no significant increase | Number of wiping movements (Jcl:SD strain male rats; concentration 500 μg/ml, listed as Ex. 225): 4.4 ± 2.1; Number of wiping movements (Jcl:SD strain male rats; concentration 1000 μg/ml): 1.6 ± 1.2 |
| COc1cc(CC(=O)Nc2ccc3ccn(Cc4ccccc4)c3c2)ccc1OCCN [Example 238, 4-(2-aminoethoxy)-3-methoxy-N-[1-benzylindol-6-yl]phenylacetamide] |  | 70.2 | 0.37 |  |  |  |  |
| COc1cc(CC(=O)Nc2ccc3c(c2)C(=O)C(Cc2ccccc2)CC3)ccc1O (centres unmarked) [Example 249, 4-hydroxy-3-methoxy-N-[1-oxo-2-phenylmethyl-1,2,3,4-tetrahydronaphthalen-7-yl]phenylacetamide] |  | 89.4 |  |  |  |  | ED50 (mg/kg sc) (male Std:ddY mice; subcutaneous administration, writhing inhibition, listed as Ex. 249): 0.043 mg/kg |
| CCCCCc1ccc(C(=O)NCc2ccc(O)c(OC)c2)cc1 [N-(4-hydroxy-3-methoxybenzyl)-4-pentylbenzamide] |  |  |  |  |  |  | analgesic effect [1]: no analgesic effect |
| Oc1cc2c(cc1O)CN(C(=S)NCCc1ccc(Cl)cc1)CCC2 [capsazepin] |  |  |  |  |  |  | analgesic effect (VR1 receptor): significant analgesic effect |

From patent US7084176B2, “N-arylphenylacetamide derivatives and medicinal compositions containing the same” (Dainippon Pharmaceutical Co., Ltd., priority 2001, dated 2006)
